The structures appear in SMILES notation. Where two headings read alike, the source gives them in different places.

One assay concerns EPO. Put plainly: EPO expression at the cellular level (EPO kit). It counts as cell-based. As to conditions: Hep3B human hepatoma cell, 24 h after administration. Here is the method:
(§1) The test of the activity of some compounds of the present invention on VEGF at the cellular level and EPO at the cellular level is shown as follows. The method is in accordance with Bioorganic & Medicinal Chemistry Letters 23 (2013) 5953-5957, and the test was carried out by using VEGF and EPO kit respectively 24 h after administration.
(§2) Hep3B Cell: Human Hepatoma Cell

For another assay, the system named is VEGF. Put plainly: VEGF expression at the cellular level (VEGF kit). It counts as cell-based. The conditions noted are these: Hep3B human hepatoma cell, 24 h after administration. Here is the method: as §1, §2
Another assay has as its target Prolyl hydroxylase 2 (Homo sapiens (Human), UniProt Q9GZT9). In words: Prolyl hydroxylase 2 inhibition, fluorescence polarization method. It counts as biochemical. On the technique in general: In fluorescence polarisation assays a small probe gives low polarisation when free and higher when bound to something large.
Another assay has as its system HIF-α. In words: Western-blot test of HIF-α level in cells. It counts as cell-based, human. As to conditions: Hep3B cell, 50 μM, 250 μM, 24 hours after administration. As to the method: At the same time, Western-blot test at the cellular level was also carried out for some of the compounds of the present invention.
FIG. 1 is the results of Western-blot test of some compounds at the cellular level (Hep3B cell: human hepatoma cell; the compound concentration: 50 μM, 250 μM, 24 hours after administration)

Where [1] appears, read: fluorescence polarization, read 1 h after adding the drugs, read-out: Prolyl hydroxylase 2 (IC50 nM).

Chain of Prolyl hydroxylase 2 (Q9GZT9 whole entry): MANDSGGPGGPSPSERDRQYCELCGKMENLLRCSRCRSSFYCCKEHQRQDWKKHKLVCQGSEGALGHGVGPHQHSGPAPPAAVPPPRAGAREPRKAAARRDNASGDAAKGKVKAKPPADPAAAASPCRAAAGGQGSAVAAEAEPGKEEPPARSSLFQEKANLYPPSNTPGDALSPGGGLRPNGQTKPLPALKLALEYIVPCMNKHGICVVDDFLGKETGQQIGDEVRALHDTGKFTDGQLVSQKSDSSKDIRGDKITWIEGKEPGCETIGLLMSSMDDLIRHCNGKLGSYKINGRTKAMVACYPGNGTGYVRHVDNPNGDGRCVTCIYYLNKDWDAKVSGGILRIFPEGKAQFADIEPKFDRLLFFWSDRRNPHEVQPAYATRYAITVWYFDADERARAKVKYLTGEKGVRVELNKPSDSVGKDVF

In general, IC50 refers to the midpoint of a concentration-inhibition curve. As to `CC(C)(C)C#Cc1cnc(C(=O)NCC(=O)O)c(O)c1` [Example 3, 2-(3-Hydroxy-5-tert-butylethynyl)picolinamido acetic acid], in the assay on EPO, the “Whether it can increase the expression of EPO in cells” value is listed as “Yes”. Besides, the “Whether it can increase the expression of VEGF in cells” value in the assay on VEGF is on record as “Yes”. In addition, the half-maximal inhibitory concentration (IC50) on Prolyl hydroxylase 2 (setting [1]) is 1220 ± 56 nM.
As for `O=C(O)CNC(=O)c1ncc(C#CC2CC2)cc1O` [Example 4, 2-(3-Hydroxy-5-cyclopropylethynyl)picolinamido acetic acid], the “Whether it can increase the expression of EPO in cells” value in the assay with EPO was “Yes”. Moreover, the “Whether it can increase the expression of VEGF in cells” value in the assay with VEGF is given as “Yes”. For the same compound, on Prolyl hydroxylase 2 (setting [1]), the IC50 was determined as 834.9 ± 3.2 nM.
For the compound `O=C(O)CNC(=O)c1ncc(C#Cc2ccccc2)cc1O` [Example 5, 2-(3-Hydroxy-5-phenylethynyl)picolinamido acetic acid], the “Whether it can increase the expression of EPO in cells” value in the assay on EPO is given as “Yes”. The “Whether it can increase the expression of VEGF in cells” value in the assay with VEGF is “Yes”. Moreover, the IC50 on Prolyl hydroxylase 2 (setting [1]) amounted to 820 ± 10.9 nM.
As to `O=C(O)CNC(=O)c1ncc(C#Cc2ccc(-c3ccccc3)cc2)cc1O` [Example 18, 2-(3-Hydroxy-5-(biphenyl-4-ylethynyl))picolinamido acetic acid], the IC50 at Prolyl hydroxylase 2 (setting [1]) was found to be 8130 ± 40.5 nM.
For the compound `NC(=O)CNC(=O)c1ncc(C#CCOc2ccc(Cl)cc2)cc1O` [Example 28], in the assay with EPO, the “Whether it can increase the expression of EPO in cells” value is “Yes”. In the assay with VEGF, the “Whether it can increase the expression of VEGF in cells” value was “Yes”.
As to `CCc1ccc(OCC#Cc2cnc(C(=O)NCC(=O)OC)c(O)c2)cc1` [Example 29, Methyl 2-(3-hydroxy-5-(3-p-ethylphenoxypropyn-1-yl))picolinamido acetate], the “Whether it can increase the expression of EPO in cells” value with EPO is given as “Yes”. In addition, in the assay on VEGF, the “Whether it can increase the expression of VEGF in cells” value is “Yes”.
For the compound `CC(C)OC(=O)CNC(=O)c1ncc(C#CCOc2ccc(C#N)cc2)cc1O` [Example 30, Isopropyl 2-(3-hydroxy-5-(3-p-cyanophenoxypropyn-1-yl))picolinamido acetate], in the assay with EPO, the “Whether it can increase the expression of EPO in cells” value is “Yes”. For the same compound, the “Whether it can increase the expression of VEGF in cells” value in the assay with VEGF is “Yes”.
Turning to `O=C(O)CNC(=O)c1ncc(C#CCOc2ccccc2)cc1O` [Example 33, 2-(3-Hydroxy-5-(3-phenoxypropyn-1-yl))picolinamido acetic acid], the “Whether it can increase the expression of EPO in cells” value in the assay on EPO is recorded as “Yes”. Further, the “Whether it can increase the expression of VEGF in cells” value in the assay on VEGF is listed as “Yes”. Moreover, the IC50 came to 169.5 ± 0.5 nM on Prolyl hydroxylase 2 (Table 2 comparison, same test method, same batch, read-out: Prolyl hydroxylase 2 (IC50 nM), example compounds of the present invention) and 169.5 ± 0.5 nM at Prolyl hydroxylase 2 (setting [1]).
For the compound `Cc1ccc(OCC#Cc2cnc(C(=O)NCC(=O)O)c(O)c2)cc1` [Example 34, 2-(3-Hydroxy-5-(3-p-tolyloxypropyn-1-yl))picolinamido acetic acid], the “Whether it can increase the expression of EPO in cells” value with EPO is recorded as “Yes”. For the same compound, the “Whether it can increase the expression of VEGF in cells” value with VEGF is recorded as “Yes”. Moreover, the IC50 at Prolyl hydroxylase 2 (setting [1]) was found to be 110 ± 22 nM. The “Whether it can increase the level of HIF-α in cells” value (“Whether it can increase the level” for short) in the assay on HIF-α was “Yes”.
On to `Cc1ccccc1OCC#Cc1cnc(C(=O)NCC(=O)O)c(O)c1` [Example 35], for which the “Whether it can increase the expression of EPO in cells” value in the assay with EPO is “Yes”. In addition, the “Whether it can increase the expression of VEGF in cells” value in the assay on VEGF is on record as “Yes”. In addition, on Prolyl hydroxylase 2 (setting [1]), the half-maximal inhibitory concentration (IC50) came to 70.4 ± 0.6 nM.
In the case of `CCc1ccc(OCC#Cc2cnc(C(=O)NCC(=O)O)c(O)c2)cc1` [Example 36], the “Whether it can increase the expression of EPO in cells” value in the assay with EPO was “Yes”. Besides, the “Whether it can increase the expression of VEGF in cells” value in the assay with VEGF is recorded as “Yes”. The IC50 at Prolyl hydroxylase 2 (setting [1]) was determined as 378 ± 33.3 nM.
Take `Cc1cccc(OCC#Cc2cnc(C(=O)NCC(=O)O)c(O)c2)c1C` [Example 38, 2-(3-Hydroxy-5-(3-(2,3-dimethylphenyl)oxypropyn-1-yl))picolinamido acetic acid]: the “Whether it can increase the expression of EPO in cells” value in the assay on EPO is “Yes”. Also, the “Whether it can increase the expression of VEGF in cells” value in the assay with VEGF is given as “Yes”. The “Whether it can increase the level” value in the assay on HIF-α is given as “Yes”.
In the case of `COc1ccc(OCC#Cc2cnc(C(=O)NCC(=O)O)c(O)c2)cc1` [Example 39, 2-(3-Hydroxy-5-(3-p-methoxyphenoxypropyn-1-yl))picolinamido acetic acid], the “Whether it can increase the expression of EPO in cells” value with EPO is on record as “Yes”. The “Whether it can increase the expression of VEGF in cells” value with VEGF is listed as “Yes”.
Turning to `CC(C)(C)Oc1cccc(OCC#Cc2cnc(C(=O)NCC(=O)O)c(O)c2)c1` [Example 40, 2-(3-Hydroxy-5-(3-m-tert-butoxyphenoxypropyn-1-yl))picolinamido acetic acid], the “Whether it can increase the expression of EPO in cells” value with EPO is listed as “Yes”. Also, the “Whether it can increase the expression of VEGF in cells” value with VEGF is recorded as “Yes”.
On to `O=C(O)CNC(=O)c1ncc(C#CCOc2cccc(OC3CC3)c2)cc1O` [Example 41, 2-(3-Hydroxy-5-(3-m-cyclopropoxyphenoxypropyn-1-yl))picolinamido acetic acid], for which the “Whether it can increase the expression of EPO in cells” value with EPO is “Yes”. Moreover, the “Whether it can increase the expression of VEGF in cells” value with VEGF is reported as “Yes”.
`O=C(O)CNC(=O)c1ncc(C#CCOc2ccc(C(F)(F)F)cc2)cc1O` [Example 42, 2-(3-Hydroxy-5-(3-p-trifluoromethylphenoxypropyn-1-yl))picolinamido acetic acid]: the IC50 on Prolyl hydroxylase 2 (setting [1]) was determined as 515 ± 6.1 nM.
As for `O=C(O)CNC(=O)c1ncc(C#CCOc2ccccc2Cl)cc1O` [Example 45, 2-(3-Hydroxy-5-(3-o-chlorophenoxypropyn-1-yl))picolinamido acetic acid], the “Whether it can increase the expression of EPO in cells” value with EPO is recorded as “Yes”. In addition, the “Whether it can increase the expression of VEGF in cells” value with VEGF was “Yes”. Also, the IC50 on Prolyl hydroxylase 2 (setting [1]) came to 175 ± 2.3 nM.
`O=C(O)CNC(=O)c1ncc(C#CCOc2cccc(Cl)c2)cc1O` [Example 46, 2-(3-Hydroxy-5-(3-m-chlorophenoxypropyn-1-yl))picolinamido acetic acid]: the “Whether it can increase the expression of EPO in cells” value in the assay with EPO was “Yes”. Also, the “Whether it can increase the expression of VEGF in cells” value with VEGF is “Yes”. Moreover, the half-inhibitory concentration (IC50) on Prolyl hydroxylase 2 (setting [1]) came out at 102 ± 5 nM.
Regarding `O=C(O)CNC(=O)c1ncc(C#CCOc2cccc(Br)c2)cc1O` [Example 48, 2-(3-Hydroxy-5-(3-m-bromophenoxypropyn-1-yl))picolinamido acetic acid], the “Whether it can increase the expression of EPO in cells” value in the assay on EPO is recorded as “Yes”. Further, the “Whether it can increase the expression of VEGF in cells” value with VEGF was “Yes”.
Take `N#Cc1cccc(OCC#Cc2cnc(C(=O)NCC(=O)O)c(O)c2)c1` [Example 49, 2-(3-Hydroxy-5-(3-m-cyanophenoxypropyn-1-yl))picolinamido acetic acid]: the “Whether it can increase the expression of EPO in cells” value in the assay with EPO is listed as “Yes”. Further, in the assay with VEGF, the “Whether it can increase the expression of VEGF in cells” value is reported as “Yes”.
For `O=C(O)CNC(=O)c1ncc(C#CCOc2ccc(C(=O)N3CCCC3)cc2)cc1O` [Example 54, 2-(3-Hydroxy-5-(3-(4-(pyrrolidin-1-carbonyl)phenoxy)propyn-1-yl))picolinamido acetic acid], the “Whether it can increase the expression of EPO in cells” value in the assay on EPO is listed as “Yes”. Also, the “Whether it can increase the expression of VEGF in cells” value in the assay with VEGF is recorded as “Yes”.
`O=C(O)CNC(=O)c1nc(Cl)c(C#CCOc2ccc(C(=O)N3CC3)cc2)cc1O` [Example 55]: the “Whether it can increase the expression of EPO in cells” value with EPO is “Yes”. Also, in the assay on VEGF, the “Whether it can increase the expression of VEGF in cells” value is given as “Yes”.
Turning to `O=C(O)CNC(=O)c1ncc(C#CCOc2ccc(-c3ccccc3)cc2)cc1O` [Example 57, 2-(3-Hydroxy-5-(3-p-phenylphenoxypropyn-1-yl))picolinamido acetic acid], in the assay on EPO, the “Whether it can increase the expression of EPO in cells” value is given as “Yes”. The “Whether it can increase the expression of VEGF in cells” value with VEGF is “Yes”. Besides, on Prolyl hydroxylase 2 (setting [1]), the IC50 was determined as 540 ± 3.6 nM.
For the compound `O=C(O)CNC(=O)c1ncc(C#CCOc2ccc3ccccc3c2)cc1O` [Example 58, 2-(3-Hydroxy-5-(3-(naphthalen-2-oxy)propyn-1-yl))picolinamido acetic acid], the “Whether it can increase the expression of EPO in cells” value in the assay on EPO is listed as “Yes”. Besides, the “Whether it can increase the expression of VEGF in cells” value in the assay with VEGF was “Yes”.
`O=C(O)CNC(=O)c1ncc(C#CCOc2cccc(Cl)c2Cl)cc1O` [Example 61, 2-(3-Hydroxy-5-(3-(2,3-dichlorophenyl)oxypropyn-1-yl))picolinamido acetic acid]: in the assay on EPO, the “Whether it can increase the expression of EPO in cells” value was “Yes”. Moreover, the “Whether it can increase the expression of VEGF in cells” value in the assay with VEGF is recorded as “Yes”.
For `O=C(O)CNC(=O)c1ncc(C#CCOc2cc(Cl)cc(Cl)c2)cc1O` [Example 62, 2-(3-Hydroxy-5-(3-(3,5-dichlorophenyl)oxypropyn-1-yl))picolinamido acetic acid], the “Whether it can increase the expression of EPO in cells” value in the assay on EPO is “Yes”. The “Whether it can increase the expression of VEGF in cells” value in the assay with VEGF is listed as “Yes”.
As for `O=C(O)CNC(=O)c1ncc(C#CCNc2ccccc2)cc1O` [Example 64, 2-(3-Hydroxy-5-(3-anilinopropyn-1-yl))picolinamido acetic acid], the “Whether it can increase the expression of EPO in cells” value with EPO is reported as “Yes”. Further, in the assay on VEGF, the “Whether it can increase the expression of VEGF in cells” value is recorded as “Yes”. Besides, on Prolyl hydroxylase 2 (setting [1]), the IC50 was 326.5 ± 0.8 nM.
With `O=C(O)CNC(=O)c1ncc(C#CCNc2ccc(Cl)cc2)cc1O` [Example 65], the “Whether it can increase the expression of EPO in cells” value in the assay with EPO was “Yes”. The “Whether it can increase the expression of VEGF in cells” value in the assay on VEGF is given as “Yes”. Besides, the “Whether it can increase the level” value with HIF-α was “Yes”.
Regarding `CCc1ccc(NCC#Cc2cnc(C(=O)NCC(=O)O)c(O)c2)cc1` [Example 66, 2-(3-Hydroxy-5-(3-p-ethylanilinopropyn-1-yl))picolinamido acetic acid], the “Whether it can increase the expression of EPO in cells” value in the assay on EPO was “Yes”. The “Whether it can increase the expression of VEGF in cells” value with VEGF is given as “Yes”.

For the origin of these results see patent publication US10889546B2, “Alkynyl pyridine prolyl hydroxylase inhibitor, and preparation method and medical use thereof” (Jiangsu Hengrui Medicine Co., Ltd., priority 2015, dated 2021).
